The values that follow come from ChEMBL document CHEMBL1125631, “Adenosine deaminase inhibitors: synthesis and structure-activity relationships of imidazole analogues of erythro-9-(2-hydroxy-3-nonyl)adenine” (J Med Chem, 1991).

The first experiment deals with T1, Adenosine deaminase (Bos taurus, UniProt P56658).
T1 sequence (P56658 whole entry): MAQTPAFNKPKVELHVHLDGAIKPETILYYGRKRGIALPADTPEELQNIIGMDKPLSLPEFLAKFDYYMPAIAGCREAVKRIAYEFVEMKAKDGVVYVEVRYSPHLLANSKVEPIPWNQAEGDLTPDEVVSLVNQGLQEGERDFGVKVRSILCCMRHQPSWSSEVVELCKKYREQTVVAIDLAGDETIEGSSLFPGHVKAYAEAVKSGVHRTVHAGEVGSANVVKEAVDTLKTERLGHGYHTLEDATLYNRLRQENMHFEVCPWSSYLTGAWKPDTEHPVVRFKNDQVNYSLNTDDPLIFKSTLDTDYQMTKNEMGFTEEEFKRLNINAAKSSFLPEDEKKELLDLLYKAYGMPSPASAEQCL
The experiment can be described thus: Inhibition constant against calf intestinal adenosine deaminase; Not active.
In general, Ki refers to a dissociation constant, usually derived from enzyme kinetics or from competition with a known ligand. Read a high Ki as a looser hold on the target. For the compound `N=C(N)c1ncn(C2O[C@H](CO)[C@@H](O)[C@H]2O)c1N` (stereo partly specified), the inhibition constant (Ki) result is reported as “Not Active”.
The same measure, in the same setting: in the case of `Nc1ncnc2c1ccn2[C@@H]1O[C@H](CO)[C@@H](O)[C@H]1O` [TUBERCIDIN] it was “Not Active”; in that of `N=C(N)c1cn(C2O[C@H](CO)[C@@H](O)[C@H]2O)cn1` (stereo partly specified), “Not Active”.
For `NC(=O)c1ccn(C2O[C@H](CO)[C@@H](O)[C@H]2O)c1` (stereo partly specified), the inhibition constant Ki entry is listed as “Not Active”.
For `Nc1ccnc2c1ccn2C1O[C@H](CO)[C@@H](O)[C@H]1O` (stereo partly specified), the Ki result is reported as “Not Active”.

A further experiment has as its target T1, Adenosine deaminase. The experiment can be described thus: Inhibition of calf intestinal adenosine deaminase.
With `CCCCCCC(C(C)O)n1cnc(C(=O)NCC)c1` (stereo unspecified), the affinity, expressed as Ki, was 17.9 µM.
In the case of `Nc1cccc2c1ncn2C1O[C@H](CO)[C@@H](O)[C@H]1O` (stereo partly specified), the inhibition constant Ki is 110 µM.
As to `CCCCCCC(C(C)O)n1cnc(C(=O)O)c1` (stereo unspecified), the Ki was 39 µM.
With `CCCCCCC(C(C)O)n1cnc(C(=O)OCC)c1` (stereo unspecified), the inhibitory constant (Ki) turned out to be 66 µM.
In turn, `CCCCCCC(C(C)O)n1cnc(C(N)=O)c1N` (stereo unspecified) yielded a Ki of 1.04 µM.
Consider `CCCCCCC(C(C)O)n1cnc(C(=N)N)c1` (stereo unspecified), for which the affinity, expressed as Ki, was 2.56 µM.
Same read-out and setting: to `CCCCCCC(C(C)O)n1cnc(C(=N)N)c1N` (stereo unspecified) belongs 10.6 µM; to `CCCCCCC(C(C)O)n1cnc(CN)c1` (stereo unspecified), 4.02 µM; to `CCCCCCC(C(C)O)n1cnc(C(=N)S)c1` (stereo unspecified), 0.0471 µM.
Still for that read-out and setting: to `CCCCCCC(C(C)O)n1cnc(C(N)=O)c1` (stereo unspecified) belongs 0.0353 µM; to `CCCCCCC(C(C)O)n1cnc(C(=O)NCCC)c1` (stereo unspecified), 16 µM; to `CCCCCCC(C(C)O)n1cnc(CO)c1` (stereo unspecified), 2.52 µM.
For the compound `CCCCCCC(C(C)O)n1cnc(C(N)=O)c1Cl` (stereo unspecified), the Ki was 0.126 µM. Compared with the last compound, the Ki is about 20-fold lower.
Same read-out and setting: to `CCCCCCC(C(C)O)n1cnc(C(=O)NCCO)c1` (stereo unspecified) belongs 0.93 µM.
For the compound `CCCCCCC(C(C)O)n1cnc(C(=O)NCc2ccccc2)c1` (stereo unspecified), affinity was put at a Ki of 86 µM.
Same read-out and setting: to `CCCCCCC(C(C)O)n1cnc(C(=O)NC[C@H](C)O)c1` (stereo partly specified) belongs 6.9 µM; to `CCCCCCC(C(C)O)n1cnc(C(=O)OCC)c1N` (stereo unspecified), 347 µM; to `CCCCCCC(C(C)O)n1cnc(C(=O)N(C)C)c1` (stereo unspecified), 36.3 µM.
`CCCCCCC(C(C)O)n1cnc(C(=O)NC[C@@H](C)O)c1` (stereo partly specified) had an inhibition constant (Ki) of 32.1 µM.
`CCCCCCC(C(C)O)n1cnc(C(=O)NC)c1` (stereo unspecified) gave a Ki of 0.368 µM.
Same read-out and setting: in the case of `CCCCCCC(C(C)O)n1cnc(C(=O)NC2CCCC2)c1` (stereo unspecified) it was 41.1 µM.
